Assay results published in patent publication US12268725B2, “Composition of BL-8040” (BioLineRx Ltd., priority 2020, dated 2025).
Bridge positions count the residues as written; N and C are the ends. Square brackets hold non-standard residues; d marks the D form. * marks the point of attachment. 2Nal = N[C@@H](Cc1ccc2ccccc2c1)C(=O)O; Benzoyl(4-F) = O=C(c1ccc(F)cc1)*; Cit = NC(=O)NCCC[C@H](N)C(=O)O

Test system: neutrophil migration to peripheral blood
Assay: In vivo neutrophil migration to peripheral blood after injection
Conditions: mice, single subcutaneous dose of 5 mg/kg BL-8040 in 200 μl PBS, bled 2 hours after injection, flow cytometry of mature neutrophils, increase relative to control mice
Procedure: In some of any of the respective embodiments, promotion of in vivo neutrophil migration to peripheral blood is determined by subcutaneously injecting mice with 5 mg/kg of BL-8040 (SEQ ID NO: 1), reconstituted in 200 μl of PBS, then bleeding the mice 2 hours after injection (e.g., by cardiac puncture into tubes with heparin) and quantifying the number of mature neutrophils in the peripheral blood (e.g., by flow cytometry) relative to control (untreated) mice.
BL-8040 (SEQ ID NO: 1) is an antagonist of the CXCR4 chemokine receptor. The induction of the cellular activity mediated by CXCR4 is responsible for the attachment of white blood cells to the bone marrow stromal cells. Inhibition of the CXCR4 activity (e.g., by BL-8040 (SEQ ID NO: 1)) is therefore expected to induce the detachment of the white blood cells (which include but are not limited to neutrophils) from the bone marrow stroma, and the subsequent migration of the cells to the peripheral blood. […]
Mice were subcutaneously injected with a single dose of 5 mg/kg of BL-8040 (SEQ ID NO: 1), reconstituted in 200 μl of PBS. […] Flow cytometry was used to evaluate the number of mature neutrophils in the peripheral blood, and the increase relative to control mice was calculated.

Reference Example 1: BL-8040 prepared on Rink amide resin with HOBt/TBTU coupling and iodine cyclization; lacks the RRT 0.87 and 0.72 compounds ({Benzoyl(4-F)}-RR[2Nal]CY[Cit]K[dK]PYR[Cit]CR-NH2; disulfide 4-13 (inferred))
Fold increase in neutrophil number: 5.6
